The subject of data set [1] is cultured rat hippocampal neurons. In words: NMDA-induced toxicity in cultured rat hippocampal neurons, astrocyte conditioned medium. As to conditions: NMDA 100 μM pulse of 10 min. As for the experimental part: To determine whether or not AIT-082 afforded in vitro neuroprotection, the effect of AIT-082 on toxicity induced by N-methyl-D-aspartate (NMDA) in cultured rat hippocampal neurons was studied.
To determine whether AIT-082 protected against neuronal toxicity induced by NMDA, and whether astrocytes might be involved, cultured astrocytes were exposed to AIT-082 for 6 hr. The drug was then removed and cultures were kept in fresh medium for the following 20 hr. This conditioned medium was then added to primary cultures of rat hippocampal neurons on the seventh day in vitro, immediately after they had been exposed to a toxic pulse of NMDA.
It was next evaluated whether the addition of conditioned medium (CM) deriving from astrocyte cultures treated with 100 μM AIT-082 generated protection against damage induced by a toxic pulse with 100 μM NMDA in cultured neurons.
The effects of NMDA are shown in FIG. 66A on cortical cells and in FIG. 66B for hippocampal cells.

Data set [2] relates to cultured neurons from rat cerebral cortex. As to the kind of experiment: NMDA-induced toxicity in cultured rat cortical neurons, astrocyte conditioned medium. Format: cell-based. As to conditions: NMDA pulse 100 μM for 10 min, Trypan blue or LDH. As for the experimental part: In these experiments, cultured neurons were prepared from rat cerebral cortex. In these cultures the NMDA pulse (100 μM for 10 min) provoked about 80% neuronal death (measured by Trypan blue cell staining or LDH activity). Separately, cultured astrocytes were treated for 6 hours with AIT-082. Then, the medium containing the drug was replaced with fresh medium without the drug and the astrocyte cultures were maintained in this medium for the next 24 hours. This medium represented the CM and was added to neurons soon after the toxic pulse with NMDA. The addition of CM partly counteracted the toxic effects caused by NMDA, reducing the neuronal damage by about 50%. If the medium was boiled for 20 min at 100° C. prior to addition to NMDA-damaged neurons, it completely lost the protective activity. […] To verify whether the neuroprotection caused by AIT-082 was ascribable to the production of TGFβ2 or NGF, antibodies to TGFβ2 or to NGF (100 ng/ml) were added together with CM.
Conversely, when DPCPX (100 nm) was added to astrocyte cultures together with AIT-082, the neuroprotective effect of the resulting CM deriving from the culture of the astrocytes with AIT-082 was reduced by only 20%, as compared to the neuroprotective effect of CM derived from astrocytes exposed to AIT-082 alone (assumed as equal to 100%).

For data set [3], the system named is rat caudate nuclei. In words: GAD activity in rat caudate nuclei damaged by NMDA. Format: in vivo. As to conditions: NMDA 25-300 nmoles infused unilaterally, maximal lesion, 8 to 10 days. As for the experimental part: The effect of AIT-082 on in vivo neuroprotection was also assessed by assaying for glutamic acid decarboxylase (GAD) activity.
GAD activity in rat caudate nuclei was damaged in vivo by NMDA. Increasing amounts of NMDA (25-300 nmoles) were unilaterally infused into caudate nuclei of rats. Eight to 10 days after the injections, glutarnic acid decarboxylase (GAD) activity was assayed, as an index of the loss of GABA-ergic neurons. NMDA produced a dose-dependent lesion, which at its maximal extension caused a reduction of GAD activity by 50% in comparison with that of contralateral sham-operated nuclei (control). […] The necrotic areas are in white, whereas the shadow is the surrounding edema GAD activity was evaluated by measuring the ex novo formation of [^3H]GABA from dissected striata exposed to 1 μCi of [^3H]glutamate for 1 hour at 37° C. GABA was assayed by HPLC with fluorescence detection and the [3H]label associated with GABA was measured.

Data set [4] has as its system Swiss Webster mice. In words: Win-shift T-maze memory test, Swiss Webster mice. The settings on record: 90-second inter-trial interval, THA 1.25 mg/kg i.p. Format: in vivo. As for the experimental part: Male Swiss Webster mice six months (young adult) and eleven months (old) of age, obtained from the National Institute on Aging, were maintained in individual cages, on a […] light/dark cycle with continuous access to water. Food was limited so that the mice stabilized at 80% of free feeding weight. Mice were weighed and handled daily for one week. The win-shift model was run as described in the literature and consists of a T-maze in which the correct response alternates after each correct trial. The interval between trials is varied and allows for the determination of the longest period between trials that a subject can remember the correct response on the previous trial. This allows the measure of the duration of the memory trace. […] The reward goal box is alternated after each correct trial. Ten trials per mouse are run each day. […] The latency time to leave the start box is recorded as a measure of motivation, the running time (the time from leaving the start box to reaching the goal box) is recorded as a measure of performance, and the number of correct responses as a measure of memory.
(§1) The drugs used in this example are 4-((3-(1,6-dihydro-6-oxo-9-purin-9-yl)-1-oxopropyl)amino) benzoic acid (AIT-082), as an exemplary potassium salt, tacrine hydrochloride (tetrahydroaminoacridine, THA, Sigma Chemical Co., St. Louis, Mo.), and physostigmine, hemisulfate salt (PHY, Sigma Chemical Co., St. Louis, Mo.). The drugs were dissolved in saline and prepared fresh daily. All injections were made at a volume of 0.1 ml/10 grams body weight. When testing drug effects, intraperitoneal (i.p.) injections of AIT-082 or THA were made one hour prior to the start of testing. Due to its shorter duration of action, PHY was injected 30 minutes prior to testing. Control subjects receive a similar injection of saline (vehicle).
To determine the duration of the memory trace, subjects were administered drug or saline and 30 minutes (PHY) or 1 hour (AIT-082 or THA) later they were given a single reference run with the milk reward in both goal boxes. After the indicated inter-trial delay, subjects were returned to the start box and given the first test trial with the milk reward only in the goal box opposite to the one entered on the previous correct trial. The subjects were given 10 trials with the reward alternating only after correct responses.
To determine if tolerance to the biological effects of AIT-082 developed, drug or saline was administered daily for 18 days prior to the testing in the standard win-shift paradigm.

For data set [5], the system named is Swiss Webster mice. As to the kind of experiment: Locomotor activity (spontaneous movements), Swiss Webster mice. In kind it is in vivo. The settings on record: THA 1.25 mg/kg. As for the experimental part: The activity of AIT-082 was compared with tacrine (THA) and physostigmine (PHY), experimental anticholinesterase agents which enhance memory in animals. The drugs were also evaluated for their effects on locomotor activity. In the win-shift memory paradigm, AIT-082 was evaluated for its ability to induce tolerance after 18 days of drug administration. In addition AIT-082 was tested for its activity to modify learning in a modified T-maze discrimination task.
as §1

Where a name gives a salt, the structure may show the parent alone. Marks after values point to notes of the source that are not given here.

Take `CN[C@H](CC(=O)O)C(=O)O` [NMDA, N-methyl-D-aspartate]: in data set [1], the “death of the cultured neurons” value is ~75%. In data set [1] (within 24 hours), the “Count of Dead Cells (Trypan Blue Staining)” value came out at 401.4 ± 27.3 and the LDH was found to be 262.8 ± 13.4 mOD/min. Besides, the neuronal death entry in data set [2] is on record as “about 80%”. For the same compound, the “reduction of GAD activity versus contralateral sham-operated nuclei” value in data set [3] turned out to be 50%.
In the case of `Nc1c2c(nc3ccccc13)CCCC2` [THA, tacrine hydrochloride, reference compound], in data set [4], the “Win-shift Memory Test, Correct responses” value is on record as 7.1* Correct responses/10 trials. For the same compound, the “Locomotor Activity” value in data set [5] is 671* Spontaneous movements per hour.

These data come from patent US6338963B1, “Use of carbon monoxide dependent guanylyl cyclase modifiers to stimulate neuritogenesis” (NeoTherapeutics, Inc., priority 1994, dated 2002).
